Read-outs that look alike come from different tables or passages of the source.
How the values were obtained:
ASD phenotype 1 patients = test: Challenge test with broccoli sprout extract (sulforaphane), behavioral scores; format: in vivo, humans; settings: selected patient cohort
Protocol: (§1) The effects of sulforaphane containing Broccoli sprout extract was observed and quantified in 7 individuals suffering from ASD and previously classified as either phenotype 1 or phenotype 2 patients.
The extract was prepared from selected broccoli seeds known to have high yield of sulforaphane which were surface-disinfected and grown (sprouted) for 3 days in a commercial sprouting facility under controlled light and moisture conditions.

ASD phenotype 2 patients = settings: for CGI-I: after 3 days of administration; for CGI-I / GGI-S: 7-point scale; for Clinical significance / GGI-S: after challenge test; for ADI-R-RI S score / ADI-R-C S score / ADI-R-SI S score: day 3 of challenge test; for ADI-R-SI S score: baseline 16; for ADI-R-C Change (%) / ADI-R-RI Change (%) / ADI-R-SI Change (%): day 3 vs baseline
Protocol: as §1
We describe a procedure consisting of an evaluation of patients with ASD prior and after administration of broccoli sprout extract. The extract was prepared from selected broccoli seeds known to have high yield of sulforaphane which were surface-disinfected and grown (sprouted) for 3 days in a commercial sprouting facility under controlled light and moisture conditions. A boiling water extract was prepared, filtered, cooled, and treated with the enzyme myrosinase (from daikon sprouts) to convert precursor glucosinolates to isothiocyanates. Behavioral evaluation of patients was performed prior, during and after administration of sulforaphane-containing broccoli sprout extract. Baseline evaluation of patients was performed using standard clinical endpoints (ADI-R subscales ADI-SI, ADI-C and ADI-RI).
Challenge regimen consisted of the administration of a Broccoli Sprout Extract dose corresponding to a total daily dosage of 4 μmol/kg of sulforaphane, administered in 3 doses over the course of the day.
The assessment of baseline scores and post challenge test scores was conducted by two experienced clinicians with extensive experience in conducting ASD clinical assessments, both of which separately rated the patients. In case of diverging scores in test subscales at baseline or after administration of the challenge test, the lowest severity score was retained. Assessment of clinical endpoints was performed at day 3 of administration of challenge test. Behavioral Outcome Measures: (primary efficacy endpoints): ABC, SRS; CGI-S, CGI-I and ADI-R (ADI-SI, ADI-C, ADI-RI).

[1] = Singh K et al., PNAS 2014; cited from earlier work
[2] = system: lymphoblastoid cell lines of ASD phenotype 1 patients; test: Biolog Phenotype Mammalian MicroArrays, NADH production (redox dye); format: cell-based, human; settings: cells exposed to the growth factor or cytokine; FIG. 1 (AUC) and Table 1
Protocol: From all subjects, blood samples were collected and lymphoblastoid cell lines generated. Briefly, tubes containing anticoagulant citrate dextrose (ACD) were used to collect blood samples via venipuncture, in order to ensure that the blood cells remained metabolically active. The tubes were kept at room temperature and processed within 24 hours.
Cell lines were obtained by immortalization of lymphocytes from blood samples using Epstein-Barr virus.
Energy production of cells was measured using commercially available Phenotype Mammalian MicroArrays (PM-Ms, Biolog, Hayward, Calif., USA).
The compound in each well was designed to be used by the cells, either as the sole energy source or as the metabolic effector influencing the utilization of an energy source (α-D-glucose) added in the cell suspension. […] Before plating, cell viability and number were assessed utilizing a BioRad cell counter and a trypan blue dye. The concentration of live cells required for plating was 4×10^5 cells/mL, corresponding to 20,000 cells per well in a volume of 50 μL. […] Cells were incubated for 48 h at 37° C. in 5% CO2, using the modified Biolog IF-M1 medium.
The Biolog IF-M1 medium was modified for plates PM-M1 to M4 by adding the following to 100 mL of Biolog IF-M1: 1.1 mL of 100× penicillin/streptomycin solution, 0.16 mL of 200 mM glutamine (final concentration 0.3 mM), and 5.3 mL of Fetal Bovine Serum (FBS, final concentration 5%). For plates PM-M5 to M8, 5.5 mM α-D-glucose will be added in place of FBS.
During the 48-hour incubation, the only energy source the cells had was the chemical in the well. After this first incubation, Biolog Redox Dye Mix MB was added (10 μL/well) and the plates were incubated under the same conditions for an additional 24 hours. As the cells metabolized the energy source, tetrazolium dye in the media was reduced, producing a purple color according to the amount of NADH generated.
For the last 24 hours of the experiment, the plates were incubated in the Omnilog system, which collects optical density readings every 15 minutes, generating 96 data-points for each well. The system also elaborated the kinetic curve for the metabolic reaction in each well and extrapolated parameters such as slope, highest point, endpoint, area under the curve (AUC), and lag.
At the end of the 24-hour incubation, the plates were analyzed utilizing a microplate reader with readings at 590 and 750 nm. The first value (A590) indicated the highest absorbance peak of the redox dye and the second value (A750) gave a measure of the background noise. The relative absorbance (A590-750) was calculated per well.

[3] = Example 4 Patient 1 (phenotype 2)
[4] = Example 4 Patient 2 (phenotype 2)

For `C[S@@+]([O-])CCCCN=C=S` [sulforaphane, 1-isothiocyanato-4R-(methylsulfinyl)butane], the “reducing disease severity as measured through the ADI-R, SRS and GGI-S/CGI-I” value (ASD phenotype 1 patients) was “not effective”, the CGI-I (ASD phenotype 2 patients; [3]) was 2 and the Clinical significance (ASD phenotype 2 patients; [3]) was “Very much improved”. For the same compound, the GGI-S (ASD phenotype 2 patients; [3]) was 4, the “ADI-R-RI S score” value (ASD phenotype 2 patients; Example 4 Patient 1 (phenotype 2), baseline 3) was 3 and the “ADI-R-C S score” value (ASD phenotype 2 patients; Example 4 Patient 1 (phenotype 2), baseline 12) was 10. The “ADI-R-SI S score” value (ASD phenotype 2 patients; [3]) was 12, the “ADI-R-C Change (%)” value (ASD phenotype 2 patients; [3]) was −20% and the “ADI-R-RI Change (%)” value (ASD phenotype 2 patients; [3]) was 0%. For the same compound, the “ADI-R-SI Change (%)” value (ASD phenotype 2 patients; [3]) was −33%, the CGI-I (ASD phenotype 2 patients; [4]) was 2 and the Clinical significance (ASD phenotype 2 patients; [4]) was “Very much improved”. The GGI-S (ASD phenotype 2 patients; [4]) was 4, the “ADI-R-RI S score” value (ASD phenotype 2 patients; Example 4 Patient 2 (phenotype 2), baseline 5) was 4 and the “ADI-R-C S score” value (ASD phenotype 2 patients; Example 4 Patient 2 (phenotype 2), baseline 11) was 9. For the same compound, the “ADI-R-SI S score” value (ASD phenotype 2 patients; [4]) was 14, the “ADI-R-C Change (%)” value (ASD phenotype 2 patients; [4]) was −22% and the “ADI-R-RI Change (%)” value (ASD phenotype 2 patients; [4]) was −25%. The “ADI-R-SI Change (%)” value (ASD phenotype 2 patients; [4]) was −14%, the “tolerability of administration to humans” value [1] was “well tolerated” and the toxicity [1] was “low toxicity”.
In the case of “FGF-1(aFGF): growth factor that selectively targets the PI3K-Akt-mTOR pathway”, the “production of NADH in ASD phenotype 1 cells compared to TDs and non-phenotype 1 cells” value [2] is reported as “significantly reduced production of NADH”.
For IGF-I: insulin-like growth factor 1, the “production of NADH in ASD phenotype 1 cells compared to TDs and non-phenotype 1 cells” value [2] was “no significant differences”.
With IL-1beta: Th1 cytokine the “production of NADH in ASD phenotype 1 cells compared to TDs and non-phenotype 1 cells” value [2] was “significantly lower levels of NADH”.
In the case of IL-6: Th1 cytokine, the “production of NADH in ASD phenotype 1 cells compared to TDs and non-phenotype 1 cells” value [2] is reported as “significantly lower levels of NADH”.
With “PDGF-AB: platelet-derived growth factor AB” the “production of NADH in ASD phenotype 1 cells compared to TDs and non-phenotype 1 cells” value [2] was “no significant differences”.
With “hGH(Somatotropin): growth factor that selectively targets the PI3K-Akt-mTOR pathway” the “production of NADH in ASD phenotype 1 cells compared to TDs and non-phenotype 1 cells” value [2] was “significantly reduced production of NADH”.
